For series [1], the target named is Mu-type opioid receptor (Homo sapiens, UniProt P35372). Put plainly: DRUGMATRIX: Opiate mu (OP3, MOP) radioligand binding (ligand: [3H] Diprenorphine). It is filed as cell membranes, CHO-K1, Membrane. The note with it: cho-k1; Not Active = under 50% inhibition at 10 µM.
Series [2] concerns the target Voltage-gated inwardly rectifying potassium channel KCNH2 (Homo sapiens, UniProt Q12809). The note with it: hek293. Further: in other assays of this panel Not Active means under 50% inhibition at 10 µM.
Series [3] has as its target T1, Alpha-1B adrenergic receptor (Rattus norvegicus, UniProt P15823).
T1 sequence (P15823 whole entry): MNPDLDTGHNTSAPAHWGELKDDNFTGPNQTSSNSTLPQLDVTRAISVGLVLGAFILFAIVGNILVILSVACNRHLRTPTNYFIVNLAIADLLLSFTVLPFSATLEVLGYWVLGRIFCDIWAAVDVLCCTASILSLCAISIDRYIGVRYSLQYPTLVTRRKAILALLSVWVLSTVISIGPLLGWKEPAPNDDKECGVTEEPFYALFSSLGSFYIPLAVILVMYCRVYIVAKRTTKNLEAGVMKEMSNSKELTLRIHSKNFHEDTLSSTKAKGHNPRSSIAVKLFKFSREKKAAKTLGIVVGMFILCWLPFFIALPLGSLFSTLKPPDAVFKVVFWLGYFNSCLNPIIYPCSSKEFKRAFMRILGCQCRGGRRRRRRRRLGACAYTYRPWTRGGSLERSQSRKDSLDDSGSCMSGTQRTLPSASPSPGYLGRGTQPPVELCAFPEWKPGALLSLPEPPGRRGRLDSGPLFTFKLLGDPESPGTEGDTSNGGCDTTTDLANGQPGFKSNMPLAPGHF
Put plainly: DRUGMATRIX: Alpha-1B adrenergic receptor radioligand binding (ligand: prazosin). The class given is cell membranes, Wistar, Liver, Membrane. The note with it: Not Active = under 50% inhibition at 10 µM.

Series [4] concerns the target T2, Cytochrome P450 2A6 (Homo sapiens, UniProt P11509). Further: in other assays of this panel Not Active means under 50% inhibition at 10 µM.
T2 sequence (P11509 whole entry): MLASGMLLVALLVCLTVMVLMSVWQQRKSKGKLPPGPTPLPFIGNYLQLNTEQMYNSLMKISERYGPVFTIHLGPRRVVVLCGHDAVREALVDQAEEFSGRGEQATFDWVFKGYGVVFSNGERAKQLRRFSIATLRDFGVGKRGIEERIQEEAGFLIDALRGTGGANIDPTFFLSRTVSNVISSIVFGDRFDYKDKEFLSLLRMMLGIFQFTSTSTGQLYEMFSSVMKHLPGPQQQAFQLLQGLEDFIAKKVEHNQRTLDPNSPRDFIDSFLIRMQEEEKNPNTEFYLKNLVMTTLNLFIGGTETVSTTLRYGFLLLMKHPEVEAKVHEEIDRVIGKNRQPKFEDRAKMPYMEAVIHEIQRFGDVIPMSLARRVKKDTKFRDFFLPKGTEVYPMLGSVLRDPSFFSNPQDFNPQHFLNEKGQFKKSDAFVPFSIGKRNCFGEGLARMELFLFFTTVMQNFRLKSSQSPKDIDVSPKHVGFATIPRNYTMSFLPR
The note with it: bti-tn-5b1-4.

In series [5] the target is T3, 5-hydroxytryptamine receptor 2C (Homo sapiens, UniProt P28335).
T3 sequence (P28335 whole entry): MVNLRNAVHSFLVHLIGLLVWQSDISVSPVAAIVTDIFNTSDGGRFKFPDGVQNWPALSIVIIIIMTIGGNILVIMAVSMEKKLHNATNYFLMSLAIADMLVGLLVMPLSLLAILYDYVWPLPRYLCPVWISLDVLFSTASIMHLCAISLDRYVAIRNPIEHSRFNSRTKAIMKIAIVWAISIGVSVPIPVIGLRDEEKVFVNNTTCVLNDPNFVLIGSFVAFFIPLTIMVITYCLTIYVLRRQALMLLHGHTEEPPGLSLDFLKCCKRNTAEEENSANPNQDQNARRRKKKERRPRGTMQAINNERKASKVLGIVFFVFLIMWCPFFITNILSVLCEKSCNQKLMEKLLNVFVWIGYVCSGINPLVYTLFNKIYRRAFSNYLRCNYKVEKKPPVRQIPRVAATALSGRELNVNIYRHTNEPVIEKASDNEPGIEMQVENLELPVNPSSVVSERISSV
Put plainly: DRUGMATRIX: Serotonin (5-Hydroxytryptamine) 5-HT2C radioligand binding (ligand: [3H] Mesulergine). Particulars: cho-k1; Not Active = under 50% inhibition at 10 µM. The class given is cell membranes, CHO-K1, Membrane.

Series [6] concerns the target T4, Alpha-2A adrenergic receptor (Homo sapiens, UniProt P08913). Further: in other assays of this panel Not Active means under 50% inhibition at 10 µM.
T4 sequence (P08913 whole entry): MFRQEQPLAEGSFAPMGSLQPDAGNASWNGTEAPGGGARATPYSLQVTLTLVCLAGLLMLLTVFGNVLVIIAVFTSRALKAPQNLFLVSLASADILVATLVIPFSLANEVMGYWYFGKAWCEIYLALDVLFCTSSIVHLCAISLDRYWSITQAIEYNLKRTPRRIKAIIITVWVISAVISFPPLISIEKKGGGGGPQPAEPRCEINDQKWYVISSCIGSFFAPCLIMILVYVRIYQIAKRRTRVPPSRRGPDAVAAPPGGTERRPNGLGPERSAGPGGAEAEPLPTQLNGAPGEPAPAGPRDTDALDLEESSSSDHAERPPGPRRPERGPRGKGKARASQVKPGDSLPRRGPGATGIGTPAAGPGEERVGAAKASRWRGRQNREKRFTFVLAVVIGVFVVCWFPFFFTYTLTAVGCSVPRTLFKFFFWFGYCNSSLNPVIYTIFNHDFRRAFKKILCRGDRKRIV
It is filed as cell membranes, Sf9, Membrane.

Mu-type opioid receptor, sequence (P35372 whole entry): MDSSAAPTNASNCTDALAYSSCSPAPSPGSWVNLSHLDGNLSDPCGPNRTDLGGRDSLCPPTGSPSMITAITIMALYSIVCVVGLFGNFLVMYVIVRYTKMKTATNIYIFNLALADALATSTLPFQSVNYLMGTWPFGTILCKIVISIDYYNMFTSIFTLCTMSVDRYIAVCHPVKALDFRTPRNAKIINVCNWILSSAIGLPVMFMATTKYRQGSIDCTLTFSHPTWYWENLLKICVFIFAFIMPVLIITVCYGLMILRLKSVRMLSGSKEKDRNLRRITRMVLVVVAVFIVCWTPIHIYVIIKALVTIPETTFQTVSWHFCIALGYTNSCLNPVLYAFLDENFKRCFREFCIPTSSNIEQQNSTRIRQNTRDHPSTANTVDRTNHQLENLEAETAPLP
Voltage-gated inwardly rectifying potassium channel KCNH2, sequence (Q12809 whole entry): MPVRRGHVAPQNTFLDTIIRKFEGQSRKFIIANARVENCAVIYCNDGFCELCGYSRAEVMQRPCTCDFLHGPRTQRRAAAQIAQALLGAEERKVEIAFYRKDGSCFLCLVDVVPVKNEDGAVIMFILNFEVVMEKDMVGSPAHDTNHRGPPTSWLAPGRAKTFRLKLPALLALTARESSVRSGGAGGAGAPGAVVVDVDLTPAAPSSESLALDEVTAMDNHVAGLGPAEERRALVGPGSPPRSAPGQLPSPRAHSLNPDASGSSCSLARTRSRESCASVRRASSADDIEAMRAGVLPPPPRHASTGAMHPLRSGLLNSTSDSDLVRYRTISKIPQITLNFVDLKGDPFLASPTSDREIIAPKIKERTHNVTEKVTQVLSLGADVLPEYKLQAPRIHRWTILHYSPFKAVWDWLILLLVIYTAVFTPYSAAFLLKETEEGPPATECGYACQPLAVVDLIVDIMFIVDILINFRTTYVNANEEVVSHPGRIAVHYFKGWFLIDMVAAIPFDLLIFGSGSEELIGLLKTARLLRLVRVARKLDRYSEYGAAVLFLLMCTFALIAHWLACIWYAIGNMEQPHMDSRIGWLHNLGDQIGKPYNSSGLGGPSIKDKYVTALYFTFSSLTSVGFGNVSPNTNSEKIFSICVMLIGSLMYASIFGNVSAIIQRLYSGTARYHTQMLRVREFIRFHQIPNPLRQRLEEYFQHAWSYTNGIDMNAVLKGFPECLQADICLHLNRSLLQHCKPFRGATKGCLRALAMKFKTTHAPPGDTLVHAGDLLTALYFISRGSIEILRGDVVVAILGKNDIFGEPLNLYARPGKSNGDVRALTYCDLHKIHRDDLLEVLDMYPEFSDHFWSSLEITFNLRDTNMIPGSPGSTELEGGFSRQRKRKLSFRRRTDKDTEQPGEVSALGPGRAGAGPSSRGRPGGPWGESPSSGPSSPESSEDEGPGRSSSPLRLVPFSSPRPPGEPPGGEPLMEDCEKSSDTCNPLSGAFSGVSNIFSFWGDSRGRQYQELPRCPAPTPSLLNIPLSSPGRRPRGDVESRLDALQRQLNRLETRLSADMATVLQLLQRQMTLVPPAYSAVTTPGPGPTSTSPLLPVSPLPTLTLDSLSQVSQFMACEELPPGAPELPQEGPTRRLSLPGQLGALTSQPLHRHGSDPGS

Broadly, the IC50 is the concentration that inhibits the measured activity by half. One may read the Ki as the dissociation constant of the complex between target and ligand, obtained from inhibition or displacement. As to `Cc1nnc(NS(=O)(=O)c2ccc(N)cc2)s1` [SULFAMETHIZOLE], the half-maximal inhibitory concentration (IC50) result in series [1], in series [2], in series [3], in series [4], in series [5] and in series [6] (sf9) was “Not Active” in each case. The Ki entry in series [2] and in series [4] was “Not Active” in each case.

As to `Cc1cnc(NC(=O)C2=C(O)c3ccccc3S(=O)(=O)N2C)s1` [MELOXICAM], the IC50 result in series [1], in series [2], in series [3], in series [4], in series [5] and in series [6] (sf9) was “Not Active” in each case. Moreover, the Ki entry in series [2] and in series [4] was “Not Active” each time.

On to `CC[C@H](C)[C@@H](CO[C@@H](Cc1ccccc1)C(=O)N[C@@H](CCS(C)(=O)=O)C(=O)OC(C)C)NC[C@@H](N)CS`, for which the half-maximal inhibitory concentration (IC50) entry is “Not Active” in series [1]; “Not Active” in series [2]; “Not Active” in series [3]; “Not Active” in series [4]; “Not Active” in series [5]; 432 nM in series [6] (read-out: IC50). In addition, the figures for the Ki result in series [2], in series [4] and in series [6] (read-out: Ki) were “Not Active”, “Not Active” and 162 nM, respectively.

For `C=CCc1ccc2c(c1)OCO2` [SAFROLE], the half-inhibitory concentration (IC50) result in series [1], in series [2], in series [3], in series [4], in series [5] and in series [6] (sf9) was “Not Active” each time. Besides, the Ki result in series [2] and in series [4] was “Not Active” throughout.

As for `Cc1cn([C@H]2C=C[C@@H](CO)O2)c(=O)[nH]c1=O` [STAVUDINE], the half-maximal inhibitory concentration (IC50) entry in series [1], in series [2], in series [3], in series [4], in series [5] and in series [6] (sf9) was “Not Active” throughout. Further, the Ki entry in series [2] and in series [4] was “Not Active” in each case.

In the case of `COC(=O)Nc1nc2ccc(C(=O)c3ccccc3)cc2[nH]1` [MEBENDAZOLE], the IC50 result in series [1], in series [2], in series [3], in series [4], in series [5] and in series [6] (sf9) was “Not Active” throughout. Further, the inhibition constant (Ki) entry in series [2] and in series [4] was “Not Active” each time.

Take `O=C(OC[C@H]1O[C@@H](OC(=O)c2cc(O)c(O)c(OC(=O)c3cc(O)c(O)c(O)c3)c2)[C@H](OC(=O)c2cc(O)c(O)c(OC(=O)c3cc(O)c(O)c(O)c3)c2)[C@@H](OC(=O)c2cc(O)c(O)c(OC(=O)c3cc(O)c(O)c(O)c3)c2)[C@@H]1OC(=O)c1cc(O)c(O)c(OC(=O)c2cc(O)c(O)c(O)c2)c1)c1cc(O)c(O)c(OC(=O)c2cc(O)c(O)c(O)c2)c1` [TANNIC ACID]: the IC50 result in series [1], in series [2], in series [3], in series [4], in series [5] and in series [6] (sf9) was “Not Active” each time. The Ki result in series [2] and in series [4] was “Not Active” throughout.

For the compound `CC(O)C(=O)O` (centres undefined) [LACTIC ACID], the IC50 entry in series [1], in series [2], in series [3], in series [4], in series [5] and in series [6] (sf9) was “Not Active” throughout. Moreover, the Ki result in series [2] and in series [4] was “Not Active” each time.

With `CS(=O)(=O)c1ccc(C2=C(c3ccccc3)C(=O)OC2)cc1` [ROFECOXIB], the IC50 result in series [1], in series [2], in series [3], in series [4], in series [5] and in series [6] (sf9) was “Not Active” each time. For the same compound, the Ki entry in series [2] and in series [4] was “Not Active” in each case.

With `CCOC(=O)C1=C(C)NC(C)=C(C(=O)OCC)C1c1ccccc1/C=C/C(=O)OC(C)(C)C` [LACIDIPINE], the IC50 entry in series [1], in series [2], in series [3], in series [4], in series [5] and in series [6] (sf9) was “Not Active” throughout. The inhibition constant (Ki) result in series [2] and in series [4] was “Not Active” throughout.

For `CC(N)C12CC3CC(CC(C3)C1)C2` (centres undefined) [RIMANTADINE], the IC50 entry in series [1], in series [2], in series [3], in series [4], in series [5] and in series [6] (sf9) was “Not Active” in each case. For the same compound, the Ki entry in series [2] and in series [4] was “Not Active” each time.

In the case of `O=C(O)c1cc(/N=N/c2ccc(S(=O)(=O)Nc3ccccn3)cc2)ccc1O` [SULFASALAZINE], the IC50 entry in series [1], in series [2], in series [3], in series [4], in series [5] and in series [6] (sf9) was “Not Active” throughout. The Ki entry in series [2] and in series [4] was “Not Active” each time.

Regarding `Cc1cccc(C)c1NC(=O)C(C)N` (centres undefined) [TOCAINIDE], the IC50 result in series [1], in series [2], in series [3], in series [4], in series [5] and in series [6] (sf9) was “Not Active” throughout. In addition, the Ki entry in series [2] and in series [4] was “Not Active” in each case.

`CO[C@@]12[C@H](COC(N)=O)C3=C(C(=O)C(C)=C(N)C3=O)N1C[C@@H]1N[C@@H]12` [MITOMYCIN]: the IC50 result in series [1], in series [2], in series [3], in series [4], in series [5] and in series [6] (sf9) was “Not Active” in each case. The Ki entry in series [2] and in series [4] was “Not Active” each time.

Consider `Nc1nc(N)c2nc(-c3ccccc3)c(N)nc2n1`, for which the IC50 result in series [1], in series [2], in series [3], in series [4], in series [5] and in series [6] (sf9) was “Not Active” each time. For the same compound, the Ki result in series [2] and in series [4] was “Not Active” throughout.

On to `CC[C@@]1(O)C(=O)OCc2c1cc1n(c2=O)Cc2cc3c(CN(C)C)c(O)ccc3nc2-1` [TOPOTECAN], for which the IC50 result in series [1], in series [2], in series [3], in series [4], in series [5] and in series [6] (sf9) was “Not Active” throughout. The Ki entry in series [2] and in series [4] was “Not Active” throughout.

The values are drawn from ChEMBL document CHEMBL1909046, “DrugMatrix in vitro pharmacology data”.
